{
  "source": "patent US20080146509A1",
  "about": "“COMPOSITIONS FOR DELIVERING PARATHYROID HORMONE AND CALCITONIN” (EMISPHERE TECHNOLOGIES, INC., priority 2002, published 2008)",
  "experiment": "Mean peak blood calcitonin concentration (Cmax) of sCT after oral capsule dosing of monkeys",
  "type": "in vivo, cynomolgous monkeys",
  "excerpt": "5-CNAC disodium salt ethanol solvate was screened through a 35 mesh Tyler standard sieve. 13.54 g of this material was weighed out and kept in a weighing boat. 0.028 g of parathyroid hormone (PTH) and 0.025 g of salmon calcitonin (sCT) were separately weighed out and kept in separate weighing boats. An amount of the previously weighed 5-CNAC disodium salt ethanol solvate approximately equivalent in volume to the total volume of PTH (i.e. a geometric amount) was prescreened through the same 35 mesh Tyler standard sieve on to clean paper. All the PTH was then screened through the same sieve onto the same paper. An amount of the screened 5-CNAC disodium salt ethanol solvate equivalent in volume to the total amount of material on the paper was screened through the same sieve. This was followed by screening the sCT through the same sieve on to the paper. A geometric amount of the 5-CNAC disodium salt ethanol solvate was then screened through the same sieve onto the paper. The materials on the paper were then transferred to a glass mortar and mixed by light trituration with a pestle. The remainder of the 5-CNAC disodium salt ethanol solvate was screened through the same 35 mesh Tyler standard sieve. […]\nFour cynomolgous monkeys were dosed via a feeding tube two capsules each followed by 10 ml water. The mean peak blood calcitonin concentration, Cmax, of sCT was then measured.",
  "data": [
    {"smiles": "CC(C)C[C@H](NC(=O)[C@H](CCCCN)NC(=O)CNC(=O)[C@H](CC(C)C)NC(=O)[C@@H](NC(=O)[C@@H]1CSSC[C@H](N)C(=O)N[C@@H](CO)C(=O)N[C@@H](CC(N)=O)C(=O)N[C@@H](CC(C)C)C(=O)N[C@@H](CO)C(=O)N[C@@H]([C@@H](C)O)C(=O)N1)C(C)C)C(=O)N[C@@H](CO)C(=O)N[C@@H](CCC(N)=O)C(=O)N[C@@H](CCC(=O)O)C(=O)N[C@@H](CC(C)C)C(=O)N[C@@H](Cc1c[nH]cn1)C(=O)N[C@@H](CCCCN)C(=O)N[C@@H](CC(C)C)C(=O)N[C@@H](CCC(N)=O)C(=O)N[C@H](C(=O)N[C@@H](Cc1ccc(O)cc1)C(=O)N1CCC[C@H]1C(=O)N[C@@H](CCCNC(=N)N)C(=O)N[C@H](C(=O)N[C@@H](CC(N)=O)C(=O)N[C@H](C(=O)NCC(=O)N[C@@H](CO)C(=O)NCC(=O)N[C@H](C(=O)N1CCC[C@H]1C(N)=O)[C@@H](C)O)[C@@H](C)O)[C@@H](C)O)[C@@H](C)O", "note": "[sCT, salmon calcitonin]", "values": [
      {"measurement": "mean peak blood concentration of sCT relative to that found when dosing capsules of 5-CNAC and sCT in rhesus monkeys", "setting": "capsules of 5-CNAC disodium salt ethanol solvate, PTH and sCT in cynomolgous monkeys vs capsules of 5-CNAC and sCT in rhesus monkeys", "result": "about four"},
      {"measurement": "Cmax", "setting": "monkey, blood, oral, cynomolgous monkeys, via feeding tube two capsules each (per capsule approx. 226.28 mg 5-CNAC disodium salt ethanol solvate, 0.461 mg PTH, 0.411 mg sCT) followed by 10 ml water", "result": "2 to 2.5", "unit": "ng/mL"}
    ]}
  ]
}
